The target of one assay is T1, HiBit-BRM fusion protein (Homo sapiens, UniProt P51531).
T1 construct: expressed in transfected cells
Put plainly: HiBiT-BRM cell-based degradation assay (Nano-Glo HiBiT Lytic Detection, 24 h). Conditions: HeLa cell line expressing HiBiT-BRM; for DC50: read-out: BRM HiBit Degradation IC50. The method, boiled down: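 HeLa cells stably expressing HiBiT-BRM were treated for 24 h with compounds (10-point 3-fold dilutions, 30 μM final top dose, in duplicate). HiBiT was detected by lytic LgBiT complementation luminescence. % degradation was normalized to DMSO (high control) and 2 μM of a reference BRM/BRG1 degrader (low control).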
On the technique in general: HiBiT is a short tag that completes a luciferase, so light tracks the accessible tagged protein.

The target of assay [1] is T2, HiBit-BRG1 fusion protein (Homo sapiens, UniProt P51532).
T2 construct: expressed in transfected cells
T2 sequence (P51532 whole entry, the tested form may be a part): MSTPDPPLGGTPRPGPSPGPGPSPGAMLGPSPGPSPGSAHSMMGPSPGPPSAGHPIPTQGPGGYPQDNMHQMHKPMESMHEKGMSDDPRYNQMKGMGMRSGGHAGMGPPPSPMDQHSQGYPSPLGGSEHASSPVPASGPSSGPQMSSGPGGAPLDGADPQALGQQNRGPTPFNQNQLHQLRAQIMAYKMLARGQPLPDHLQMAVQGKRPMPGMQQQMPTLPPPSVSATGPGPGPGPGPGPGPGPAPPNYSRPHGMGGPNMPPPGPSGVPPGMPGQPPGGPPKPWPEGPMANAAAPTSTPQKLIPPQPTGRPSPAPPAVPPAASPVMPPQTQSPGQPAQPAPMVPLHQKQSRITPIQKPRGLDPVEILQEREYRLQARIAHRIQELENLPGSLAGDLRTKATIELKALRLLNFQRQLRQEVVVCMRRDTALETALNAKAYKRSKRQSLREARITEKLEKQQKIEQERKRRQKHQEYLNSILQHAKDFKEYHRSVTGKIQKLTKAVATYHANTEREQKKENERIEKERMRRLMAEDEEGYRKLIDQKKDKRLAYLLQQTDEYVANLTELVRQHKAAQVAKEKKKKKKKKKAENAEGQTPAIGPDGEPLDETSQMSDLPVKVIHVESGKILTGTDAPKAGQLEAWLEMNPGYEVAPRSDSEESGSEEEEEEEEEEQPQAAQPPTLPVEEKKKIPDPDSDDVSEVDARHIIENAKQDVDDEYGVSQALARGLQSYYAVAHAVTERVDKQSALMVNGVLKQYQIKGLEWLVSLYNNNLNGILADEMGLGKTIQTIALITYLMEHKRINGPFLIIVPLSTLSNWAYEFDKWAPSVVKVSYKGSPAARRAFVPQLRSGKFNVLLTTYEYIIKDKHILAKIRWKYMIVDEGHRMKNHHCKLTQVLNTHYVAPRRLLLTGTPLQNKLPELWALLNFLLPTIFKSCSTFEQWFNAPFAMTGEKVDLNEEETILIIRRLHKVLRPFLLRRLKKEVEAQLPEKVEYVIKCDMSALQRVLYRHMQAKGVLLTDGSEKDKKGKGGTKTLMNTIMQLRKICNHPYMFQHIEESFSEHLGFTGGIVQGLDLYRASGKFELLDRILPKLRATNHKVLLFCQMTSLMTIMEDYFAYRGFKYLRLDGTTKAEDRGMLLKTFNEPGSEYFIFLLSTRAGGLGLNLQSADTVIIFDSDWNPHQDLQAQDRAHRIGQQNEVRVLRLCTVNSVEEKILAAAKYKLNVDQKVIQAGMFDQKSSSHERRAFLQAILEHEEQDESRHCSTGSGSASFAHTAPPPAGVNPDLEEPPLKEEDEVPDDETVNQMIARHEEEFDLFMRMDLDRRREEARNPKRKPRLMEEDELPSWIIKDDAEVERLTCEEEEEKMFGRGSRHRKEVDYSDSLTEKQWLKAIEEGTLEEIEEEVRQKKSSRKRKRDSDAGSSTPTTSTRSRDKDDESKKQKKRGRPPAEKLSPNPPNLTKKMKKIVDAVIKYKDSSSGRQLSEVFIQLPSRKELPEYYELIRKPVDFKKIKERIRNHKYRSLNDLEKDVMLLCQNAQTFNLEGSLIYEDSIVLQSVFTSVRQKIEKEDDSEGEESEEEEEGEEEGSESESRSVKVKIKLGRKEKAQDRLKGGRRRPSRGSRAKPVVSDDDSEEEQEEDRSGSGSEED
In words: HiBiT-BRG1 cell-based degradation assay (Nano-Glo HiBiT Lytic Detection, 24 h). Conditions: HeLa cell line expressing HiBit-BRG1 and LgBit; for Dmax: read-out: BRG1 HiBit Degradation Maximum (%); for DC50: read-out: BRMG1 HiBit Degradation IC50. The method, boiled down:
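Luminescence from Nano-Glo HiBiT lytic detection, read after 24 h compound exposure, scored degradation in a stable HeLa HiBiT-BRG1/LgBit line seeded at 5000 cells/well. DMSO wells defined 0% and 2 μM known BRM/BRG1 degrader wells defined full degradation.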

Results on 15 compounds are retold here after patent US20240024488A1, “COMPOUNDS AND USES THEREOF” (Foghorn Therapeutics Inc., priority 2020, published 2024).

T1 sequence (P51531 whole entry, the tested form may be a part): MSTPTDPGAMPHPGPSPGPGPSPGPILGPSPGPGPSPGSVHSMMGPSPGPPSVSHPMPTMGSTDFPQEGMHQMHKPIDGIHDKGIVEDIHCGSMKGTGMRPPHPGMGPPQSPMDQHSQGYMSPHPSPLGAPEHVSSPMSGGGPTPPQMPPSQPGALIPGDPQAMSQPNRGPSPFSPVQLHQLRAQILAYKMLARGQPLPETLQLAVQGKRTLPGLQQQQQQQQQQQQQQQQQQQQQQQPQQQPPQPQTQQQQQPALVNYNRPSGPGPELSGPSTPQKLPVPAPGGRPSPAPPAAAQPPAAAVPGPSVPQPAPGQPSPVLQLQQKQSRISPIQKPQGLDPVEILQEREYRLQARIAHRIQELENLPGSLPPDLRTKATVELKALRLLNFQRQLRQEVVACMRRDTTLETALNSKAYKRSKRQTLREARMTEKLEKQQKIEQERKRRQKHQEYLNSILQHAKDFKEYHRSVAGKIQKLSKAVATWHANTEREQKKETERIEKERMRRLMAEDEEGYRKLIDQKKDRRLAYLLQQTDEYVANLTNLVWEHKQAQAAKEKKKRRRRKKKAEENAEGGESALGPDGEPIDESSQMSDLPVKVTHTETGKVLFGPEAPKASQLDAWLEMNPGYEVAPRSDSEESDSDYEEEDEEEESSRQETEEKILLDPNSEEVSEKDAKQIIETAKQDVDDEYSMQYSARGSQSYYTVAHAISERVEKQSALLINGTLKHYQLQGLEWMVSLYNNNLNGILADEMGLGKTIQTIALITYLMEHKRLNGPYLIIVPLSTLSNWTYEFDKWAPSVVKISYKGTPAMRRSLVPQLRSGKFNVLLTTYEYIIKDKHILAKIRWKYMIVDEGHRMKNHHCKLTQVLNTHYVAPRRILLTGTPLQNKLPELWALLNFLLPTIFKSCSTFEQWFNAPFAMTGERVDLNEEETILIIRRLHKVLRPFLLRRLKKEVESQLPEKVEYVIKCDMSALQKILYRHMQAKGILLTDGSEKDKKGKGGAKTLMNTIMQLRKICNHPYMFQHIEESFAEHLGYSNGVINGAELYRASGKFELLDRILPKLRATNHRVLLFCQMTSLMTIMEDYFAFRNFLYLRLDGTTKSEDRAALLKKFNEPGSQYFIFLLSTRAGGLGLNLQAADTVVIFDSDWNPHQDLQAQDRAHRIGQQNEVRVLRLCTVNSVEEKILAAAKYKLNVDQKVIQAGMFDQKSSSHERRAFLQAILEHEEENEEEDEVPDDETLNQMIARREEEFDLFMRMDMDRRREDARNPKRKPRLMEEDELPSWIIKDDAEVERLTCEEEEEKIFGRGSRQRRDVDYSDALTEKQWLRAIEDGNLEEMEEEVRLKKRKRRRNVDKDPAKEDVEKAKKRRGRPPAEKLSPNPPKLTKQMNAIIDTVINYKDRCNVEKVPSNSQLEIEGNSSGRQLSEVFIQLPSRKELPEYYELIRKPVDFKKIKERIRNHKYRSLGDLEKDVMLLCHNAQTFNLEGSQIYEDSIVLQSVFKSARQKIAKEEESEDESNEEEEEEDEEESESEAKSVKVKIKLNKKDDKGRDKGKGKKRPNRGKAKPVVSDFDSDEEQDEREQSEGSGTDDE

On to `Cc1ncsc1-c1ccc([C@H](C)NC(=O)[C@@H]2C[C@@H](O)CN2C(=O)[C@@H](c2cc(OCCN3CCC(F)(c4cc5cc(-c6ccccc6O)nnc5[nH]4)CC3)no2)C(C)C)cc1` (racemic) [Compound 285, (2S,4R)-1-((R)-2-(3-(2-(4-fluoro-4-(3-(2-hydroxyphenyl)-7H-pyrrolo[2,3-c]pyridazin-6-yl)piperidin-1-yl)ethoxy)isoxazol-5-yl)-3-methylbutanoyl)-4-hydroxy-N-((S)-1-(4-(4-methylthiazol-5-yl)phenyl)ethyl)pyrrolidine-2-carboxamide], for which, on HiBit-BRM fusion protein, the “BRM HiBit Degradation Maximum (%)” value is reported as “A (“A” indicates maximum degradation ≥ 75%)” and the DC50 was greater than 100 nM. Also, in assay [1], the Dmax is greater than 50% and the DC50 is greater than 100 nM.
For the compound `Cc1ncsc1-c1ccc(CNC(=O)[C@@H]2C[C@@H](O)CN2C(=O)[C@@H](NC(=O)CCCN2CC(c3cc4cc(-c5ccccc5O)nnc4[nH]3)C2)C(C)(C)C)cc1` (racemic) [Compound 60, (2S,4R)-4-hydroxy-1-((S)-2-(4-(3-(3-(2-hydroxyphenyl)-7H-pyrrolo[2,3-c]pyridazin-6-yl)azetidin-1-yl)butanamido)-3,3-dimethylbutanoyl)-N-(4-(4-methylthiazol-5-yl)benzyl)pyrrolidine-2-carboxamide], the “BRM HiBit Degradation Maximum (%)” value at HiBit-BRM fusion protein is given as “C (“C” indicates maximum degradation < 50%)”. Also, the Dmax in assay [1] is less than 50%.
Turning to `Cc1ncsc1-c1ccc([C@H](C)NC(=O)[C@@H]2C[C@@H](O)CN2C(=O)[C@@H](c2cc(C3CN(C(=O)[C@@H]4CCc5[nH]c6nnc(-c7ccccc7O)cc6c5C4)C3)no2)C(C)C)cc1` (single isomer, unassigned) [Compound 158], at HiBit-BRM fusion protein, the “BRM HiBit Degradation Maximum (%)” value is on record as “A (“A” indicates maximum degradation ≥ 75%)” and the DC50 is greater than 100 nM. Moreover, in assay [1], the Dmax was less than 50%.
On to `Cc1ncsc1-c1ccc([C@H](C)NC(=O)[C@@H]2C[C@@H](O)CN2C(=O)[C@@H](c2cc(OCCN3CC4(CNc5nnc(-c6ccccc6O)cc54)C3)no2)C(C)C)cc1` (racemic) [Compound 177, (2S,4R)-4-hydroxy-1-((R)-2-(3-(2-(3′-(2-hydroxyphenyl)-6′,7′-dihydrospiro[azetidine-3,5′-pyrrolo[2,3-c]pyridazin]-1-yl)ethoxy)isoxazol-5-yl)-3-methylbutanoyl)-N-((S)-1-(4-(4-methylthiazol-5-yl)phenyl)ethyl)pyrrolidine-2-carboxamide], for which, on HiBit-BRM fusion protein, the “BRM HiBit Degradation Maximum (%)” value was “B (“B” indicates maximum degradation ≥ 50%)” and the DC50 was greater than 1000 nM. In addition, the Dmax in assay [1] is less than 50%.
On to `Cc1ncsc1-c1ccc([C@H](C)NC(=O)[C@@H]2C[C@@H](O)CN2C(=O)[C@@H](c2cc(OCCN3CC[C@@H](c4c(C)[nH]c5nnc(-c6ccccc6O)cc45)C3)no2)C(C)C)cc1` (single isomer, unassigned) [Compound 232], for which, at HiBit-BRM fusion protein, the “BRM HiBit Degradation Maximum (%)” value is on record as “C (“C” indicates maximum degradation < 50%)” and the DC50 is greater than 1000 nM. In assay [1], the Dmax was less than 50%.
In the case of `CC(C)[C@H](C(=O)N1C[C@H](O)C[C@H]1C(=O)N[C@@H](C)c1ccc(-c2ccccc2F)cc1)c1cc(OCCN2CC(c3cc4cc(-c5ccccc5O)nnc4[nH]3)C2)no1` (single isomer, unassigned) [Compound 117], the “BRM HiBit Degradation Maximum (%)” value on HiBit-BRM fusion protein is recorded as “C (“C” indicates maximum degradation < 50%)”. Also, the Dmax in assay [1] is less than 50%.
The like results for `Cc1ncsc1-c1ccc(CNC(=O)[C@@H]2C[C@@H](O)CN2C(=O)[C@@H](NC(=O)CCCCCCCCCCCCCC(=O)N2CC(c3c[nH]c4nnc(-c5ccccc5O)cc34)C2)C(C)(C)C)cc1` [Compound 39, (2S,4R)-4-hydroxy-1-((S)-2-(15-(3-(3-(2-hydroxyphenyl)-7H-pyrrolo[2,3-c]pyridazin-5-yl)azetidin-1-yl)-15-oxopentadecanamido)-3,3-dimethylbutanoyl)-N-(4-(4-methylthiazol-5-yl)benzyl)pyrrolidine-2-carboxamide] were, in that order, “C (“C” indicates maximum degradation < 50%)” and less than 50%.
In the case of `Cc1ncsc1-c1ccc([C@H](C)NC(=O)[C@@H]2C[C@@H](O)CN2C(=O)[C@@H](c2cc(OCCN3CCC[C@@H](c4cc5cc(-c6ccccc6O)nnc5[nH]4)C3)no2)C(C)C)cc1` (racemic) [Compound 279, (2S,4R)-4-hydroxy-1-((R)-2-(3-(2-((R)-3-(3-(2-hydroxyphenyl)-7H-pyrrolo[2,3-c]pyridazin-6-yl)piperidin-1-yl)ethoxy)isoxazol-5-yl)-3-methylbutanoyl)-N-((S)-1-(4-(4-methylthiazol-5-yl)phenyl)ethyl)pyrrolidine-2-carboxamide], on HiBit-BRM fusion protein, the “BRM HiBit Degradation Maximum (%)” value is “A (“A” indicates maximum degradation ≥ 75%)” and the DC50 is greater than 10 nM. Also, in assay [1], the Dmax was less than 50%.
Consider `Cc1ncsc1-c1ccc([C@H](C)NC(=O)[C@@H]2C[C@@H](O)CN2C(=O)[C@@H](c2cc(OCCN3CCC(c4cc5cc(-c6ccccc6O)nnc5[nH]4)CC3)no2)C(C)C)cc1` (racemic) [Compound 51, (2S,4R)-4-hydroxy-1-((R)-2-(3-(2-(4-(3-(2-hydroxyphenyl)-7H-pyrrolo[2,3-c]pyridazin-6-yl)piperidin-1-yl)ethoxy)isoxazol-5-yl)-3-methylbutanoyl)-N-((S)-1-(4-(4-methylthiazol-5-yl)phenyl)ethyl)pyrrolidine-2-carboxamide], for which, at HiBit-BRM fusion protein, the “BRM HiBit Degradation Maximum (%)” value is “A (“A” indicates maximum degradation ≥ 75%)” and the DC50 was greater than 10 nM. In addition, in assay [1], the Dmax was greater than 50% and the DC50 was greater than 100 nM.
For `Cc1ncsc1-c1ccc([C@H](C)NC(=O)[C@@H]2C[C@@H](O)CN2C(=O)[C@@H](NC(=O)CCCCCCCCCCC(=O)N2CC(c3cc4cc(-c5ccccc5O)nnc4[nH]3)C2)C(C)(C)C)cc1` [Compound 13, (2S,4R)-4-hydroxy-1-((S)-2-(12-(3-(3-(2-hydroxyphenyl)-7H-pyrrolo[2,3-c]pyridazin-6-yl)azetidin-1-yl)-12-oxododecanamido)-3,3-dimethylbutanoyl)-N-((S)-1-(4-(4-methylthiazol-5-yl)phenyl)ethyl)pyrrolidine-2-carboxamide], on HiBit-BRM fusion protein, the “BRM HiBit Degradation Maximum (%)” value is recorded as “A (“A” indicates maximum degradation ≥ 75%)” and the DC50 was greater than 100 nM. In addition, the Dmax in assay [1] is less than 50%.
For `Cc1ncsc1-c1ccc([C@H](C)NC(=O)[C@@H]2C[C@@H](O)CN2C(=O)[C@@H](c2cc(OCCNC(=O)[C@@H]3CCc4[nH]c5nnc(-c6ccccc6O)cc5c4C3)no2)C(C)C)cc1` (single isomer, unassigned) [Compound 172], in that order: “A (“A” indicates maximum degradation ≥ 75%)”, greater than 10 nM and less than 50%.
In the case of `Cc1ncsc1-c1ccc([C@H](C)NC(=O)[C@@H]2C[C@@H](O)CN2C(=O)[C@@H](c2cc(N3CCN(C(=O)[C@H]4CCc5[nH]c6nnc(-c7ccccc7O)cc6c5C4)CC3)no2)C(C)C)cc1` (single isomer, unassigned) [Compound 188], at HiBit-BRM fusion protein, the “BRM HiBit Degradation Maximum (%)” value was “A (“A” indicates maximum degradation ≥ 75%)” and the DC50 is greater than 100 nM. Moreover, in assay [1], the Dmax was greater than 75% and the DC50 is greater than 100 nM.
With `Cc1ncsc1-c1ccc([C@H](C)NC(=O)[C@@H]2C[C@@H](O)CN2C(=O)[C@@H](c2cc(N3CCN(CCC(=O)N4CC(c5c[nH]c6nnc(-c7ccccc7O)cc56)C4)CC3)no2)C(C)C)cc1` (racemic) [Compound 251, (2S,4R)-4-hydroxy-1-((R)-2-(3-(4-(3-(3-(3-(2-hydroxyphenyl)-7H-pyrrolo[2,3-c]pyridazin-5-yl)azetidin-1-yl)-3-oxopropyl)piperazin-1-yl)isoxazol-5-yl)-3-methylbutanoyl)-N-((S)-1-(4-(4-methylthiazol-5-yl)phenyl)ethyl)pyrrolidine-2-carboxamide], at HiBit-BRM fusion protein, the “BRM HiBit Degradation Maximum (%)” value is recorded as “A (“A” indicates maximum degradation ≥ 75%)” and the DC50 is greater than 100 nM. In assay [1], the Dmax is greater than 75% and the DC50 is greater than 100 nM.
On to `Cc1ncsc1-c1ccc([C@H](C)NC(=O)[C@@H]2C[C@@H](O)CN2C(=O)[C@@H](c2cc(OCCNC(=O)[C@H]3CCc4[nH]c5nnc(-c6ccccc6O)cc5c4C3)no2)C(C)C)cc1` (single isomer, unassigned) [Compound 167], for which, on HiBit-BRM fusion protein, the “BRM HiBit Degradation Maximum (%)” value is on record as “A (“A” indicates maximum degradation ≥ 75%)” and the DC50 is greater than 100 nM. In assay [1], the Dmax is greater than 50% and the DC50 is greater than 100 nM.
On to `Cc1ncsc1-c1ccc([C@H](C)NC(=O)[C@@H]2C[C@@H](O)CN2C(=O)[C@@H](c2cc(OCCNC3CC[C@]34C[C@H](c3cc5cc(-c6ccccc6O)nnc5[nH]3)C4)no2)C(C)C)cc1` (mixture of isomers) [Compound 132, (2S,4R)-4-hydroxy-1-((R)-2-(3-(2-(((1S,4s,6S)-6-(3-(2-hydroxyphenyl)-7H-pyrrolo[2,3-c]pyridazin-6-yl)spiro[3.3]heptan-1-yl)amino)ethoxy)isoxazol-5-yl)-3-methylbutanoyl)-N-((S)-1-(4-(4-methylthiazol-5-yl)phenyl)ethyl)pyrrolidine-2-carboxamide], for which, at HiBit-BRM fusion protein, the “BRM HiBit Degradation Maximum (%)” value is “A (“A” indicates maximum degradation ≥ 75%)” and the DC50 was greater than 10 nM. The Dmax in assay [1] was less than 50%.
